In patent publication US12478617B2, “Lipidated peptide inhibitors of interleukin-23 receptor” (JANSSEN BIOTECH, INC., priority 2021, dated 2025) one finds ring closure, yield after HPLC and IC50 data, which are given here for ten molecules.

Read-outs that look alike come from different tables or passages of the source. Starred links: 1 amine or outer side, 2 acyl side, 3 side chain; linkers in the order of their positions; H or OH if unused. Positions of bridges follow the written chain, without caps; N, C: chain ends. Non-standard residues stand in square brackets, D forms with d. Residues, ends and D or L forms follow the SMILES beside them. Groups on a side chain read outwards from the residue. *: point of attachment. X2 = C[N+](C)(CCNC(=O)COCCOCCNC(=O)COCCOCCNC(=O)CC[C@H](NC(=O)CCCCCCCCCCCCCCCCC(=O)O)C(=O)O)CC(=O)*; X7 = C[N+](C)(CCNC(=O)CC[C@H](NC(=O)CCCCCCCCCCCCCCCCC(=O)O)C(=O)O)CC(=O)*; X6 = C[N+](C)(CCNC(=O)CCCCCCCCCCCCCCCCC(=O)O)CC(=O)*; X5 = O=C(O)CCCCCCCCCCCCCCCCC(=O)N[C@@H](CCN*)C(=O)O; Trp(7-Me) = Cc1cccc2c(C[C@H](N)C(=O)O)c[nH]c12; C20 diacid = O=C(O)CCCCCCCCCCCCCCCCCCC(=O)*; C18 diacid = O=C(O)CCCCCCCCCCCCCCCCC(=O)*; γGlu = O=C(O)[C@H](CCC(=O)[*:2])N[*:1]; 2Nal = N[C@@H](Cc1ccc2ccccc2c1)C(=O)O; AEF = NCCOc1ccc(C[C@H](N)C(=O)O)cc1; Trx = NC[C@H]1CC[C@H](C(=O)O)CC1; 3Pal = N[C@@H](Cc1cccnc1)C(=O)O; Pen = CC(C)(S)[C@H](N)C(=O)O; Thp = NC1(C(=O)O)CCOCC1; AEEA = NCCOCCOCC(=O)O; Sar = CNCC(=O)O

The conditions of data set [1]: disulfide bond, 20-membered ring, I2/AcOH, ACN/H2O.
For another data set, the target named is T1, IL-23R (Homo sapiens, UniProt Q5VWK5).
T1 construct: HEK293 cells containing IL-23R, IL-12RP31 and a firefly luciferase reporter gene driven by a STAT-inducible promoter (Promega); host or cells: HEK293
T1 sequence (Q5VWK5 24-629): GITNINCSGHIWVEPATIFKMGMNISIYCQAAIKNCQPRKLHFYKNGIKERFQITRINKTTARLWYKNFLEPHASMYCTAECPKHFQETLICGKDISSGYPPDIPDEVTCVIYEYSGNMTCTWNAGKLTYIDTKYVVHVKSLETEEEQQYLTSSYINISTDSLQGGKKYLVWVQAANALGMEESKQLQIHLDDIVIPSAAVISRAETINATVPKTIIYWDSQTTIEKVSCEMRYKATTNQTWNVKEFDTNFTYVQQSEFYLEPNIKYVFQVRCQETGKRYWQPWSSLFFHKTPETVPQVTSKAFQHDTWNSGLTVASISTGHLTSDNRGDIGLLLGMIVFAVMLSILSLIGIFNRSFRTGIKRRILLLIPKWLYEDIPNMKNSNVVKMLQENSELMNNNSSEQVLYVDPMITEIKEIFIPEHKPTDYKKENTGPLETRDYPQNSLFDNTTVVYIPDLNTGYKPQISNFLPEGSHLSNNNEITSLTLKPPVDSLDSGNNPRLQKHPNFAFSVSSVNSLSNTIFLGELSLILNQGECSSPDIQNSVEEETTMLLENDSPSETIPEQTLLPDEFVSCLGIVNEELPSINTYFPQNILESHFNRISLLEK
Briefly: IL23R Reporter Assay. The class given is cell-based. In short, it runs like this:
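Reporter cells read out IL-23-driven STAT3 activation; compounds were serially diluted in DMSO. After 5 h at 37 °C, 5% CO2, cells were brought to 20 °C and luminescence was measured with BioGlo reagent.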

With `CC(=O)NCCCC[C@@H]1NC(=O)[C@H](Cc2c[nH]c3c(C)cccc23)NC(=O)[C@H]([C@@H](C)O)NC(=O)[C@H](CC(N)=O)NC(=O)[C@@H](NC(=O)[C@@H](CCCNC(=N)N)NC(C)=O)C(C)(C)SSC(C)(C)[C@@H](C(=O)N[C@@H](Cc2ccc(OCCNC(=O)COCCOCCNC(=O)COCCOCCNC(=O)CC[C@H](NC(=O)CCCCCCCCCCCCCCCCC(=O)O)C(=O)O)cc2)C(=O)N[C@@H](Cc2ccc3ccccc3c2)C(=O)NC2(C(=O)N[C@@H](CCCCNC(C)=O)C(=O)N[C@@H](CC(N)=O)C(=O)N[C@@H](Cc3cccnc3)C(=O)N(C)CC(N)=O)CCOCC2)NC1=O`, in data set [1] (from Ac-dArg-Pen-Asn-Thr-7MeTrp-Lys(Ac)-Pen-AEF(PEG2PEG2gEC18OH)-2Nal-THP-Lys(Ac)-Asn-3Pya-Sar-NH2, 0.355 mM), the ring closure, yield after HPLC amounted to 10%. `CC(=O)NCCCC[C@@H]1NC(=O)[C@H](Cc2c[nH]c3c(C)cccc23)NC(=O)[C@H]([C@@H](C)O)NC(=O)[C@H](CC(N)=O)NC(=O)[C@@H](NC(C)=O)C(C)(C)SSC(C)(C)[C@@H](C(=O)N[C@@H](Cc2ccc(OCCN)cc2)C(=O)N[C@@H](Cc2ccc3ccccc3c2)C(=O)NC2(C(=O)N[C@@H](CCCCNC(=O)COCCOCCNC(=O)COCCOCCNC(=O)CC[C@H](NC(=O)CCCCCCCCCCCCCCCCC(=O)O)C(=O)O)C(=O)N[C@@H](CC(N)=O)C(=O)N[C@@H](Cc3cccnc3)C(=O)N(C)CC(N)=O)CCOCC2)NC1=O`: in data set [1] (from Ac-Pen-Asn-Thr-7MeTrp-Lys(Ac)-Pen-AEF-2Nal-THP-Lys(PEG2PEG2gEC18OH)-Asn-3Pya-Sar-NH2, 0.382 mM), the ring closure, yield after HPLC came to 24%. In turn, `CC(=O)NCCCC[C@@H]1NC(=O)[C@H](Cc2c[nH]c3c(C)cccc23)NC(=O)[C@H]([C@@H](C)O)NC(=O)[C@H](CC(N)=O)NC(=O)[C@@H](NC(C)=O)C(C)(C)SSC(C)(C)[C@@H](C(=O)N[C@@H](Cc2ccc(OCCN)cc2)C(=O)N[C@@H](Cc2ccc3ccccc3c2)C(=O)NC2(C(=O)N[C@@H](CCCCNC(=O)COCCOCCNC(=O)COCCOCCNC(=O)C[N+](C)(C)CCNC(=O)CC[C@H](NC(=O)CCCCCCCCCCCCCCCCC(=O)O)C(=O)O)C(=O)N[C@@H](CC(N)=O)C(=O)N[C@@H](Cc3cccnc3)C(=O)N(C)CC(N)=O)CCOCC2)NC1=O` [Example 118, MeCO-Pen*-N-T-7MeW-K(Ac)-Pen*-AEF-2Nal-THP-K(PEG2PEG2SP6gEC18OH)-N-3Pya-Sar-CONH2] (Ac-[Pen]NT[Trp(7-Me)]K(Ac)[Pen][AEF][2Nal][Thp]K([AEEA-AEEA-X7])N[3Pal][Sar]-NH2; disulfide 1-6) had a half-inhibitory concentration (IC50) against IL-23R of 0.077 nM. `CC(=O)NCCCC[C@@H]1NC(=O)[C@H](Cc2c[nH]c3c(C)cccc23)NC(=O)[C@H]([C@@H](C)O)NC(=O)[C@H](CCCCNC(=O)COCCOCCNC(=O)COCCOCCNC(=O)CC[C@H](NC(=O)CCCCCCCCCCCCCCCCC(=O)O)C(=O)O)NC(=O)[C@@H](NC(C)=O)C(C)(C)SSC(C)(C)[C@@H](C(=O)N[C@@H](Cc2ccc(OCCN)cc2)C(=O)N[C@@H](Cc2ccc3ccccc3c2)C(=O)NC2(C(=O)N[C@@H](CCCCNC(C)=O)C(=O)N[C@@H](CC(N)=O)C(=O)N[C@@H](Cc3cccnc3)C(=O)N(C)CC(N)=O)CCOCC2)NC1=O` [Example 122, MeCO-Pen*-K(PEG2PEG2gEC18OH)-T-7MeW-K(Ac)-Pen*-AEF-2Nal-THP-K(Ac)-N-3Pya-Sar-CONH2] (Ac-[Pen]K([AEEA-AEEA-γGlu-C18 diacid])T[Trp(7-Me)]K(Ac)[Pen][AEF][2Nal][Thp]K(Ac)N[3Pal][Sar]-NH2; disulfide 1-6): the concentration for half-maximal inhibition (IC50) against IL-23R turned out to be 0.083 nM. Still for that read-out and setting: to `CC(=O)NCCCC[C@@H]1NC(=O)[C@H](Cc2c[nH]c3c(C)cccc23)NC(=O)[C@H]([C@@H](C)O)NC(=O)[C@H](CC(N)=O)NC(=O)[C@@H](NC(C)=O)C(C)(C)SSC(C)(C)[C@@H](C(=O)N[C@@H](Cc2ccc(OCCN)cc2)C(=O)N[C@@H](Cc2ccc3ccccc3c2)C(=O)NC2(C(=O)N[C@@H](CCCCNC(=O)COCCOCCNC(=O)COCCOCCNC(=O)CC[C@H](NC(=O)C[N+](C)(C)CCNC(=O)CCCCCCCCCCCCCCCCC(=O)O)C(=O)O)C(=O)N[C@@H](CC(N)=O)C(=O)N[C@@H](Cc3cccnc3)C(=O)N(C)CC(N)=O)CCOCC2)NC1=O` [Example 123, MeCO-Pen*-N-T-7MeW-K(Ac)-Pen*-AEF-2Nal-THP-K(PEG2PEG2 gE SP6 C18OH)-N-3Pya-Sar-CONH2] (Ac-[Pen]NT[Trp(7-Me)]K(Ac)[Pen][AEF][2Nal][Thp]K([AEEA-AEEA-γGlu-X6])N[3Pal][Sar]-NH2; disulfide 1-6) belongs 0.073 nM; to `CC(=O)NCCCC[C@@H]1NC(=O)[C@H](Cc2c[nH]c3c(C)cccc23)NC(=O)[C@H]([C@@H](C)O)NC(=O)[C@H](CC(N)=O)NC(=O)[C@@H](NC(C)=O)C(C)(C)SSC(C)(C)[C@@H](C(=O)N[C@@H](Cc2ccc(OCCN)cc2)C(=O)N[C@@H](Cc2ccc3ccccc3c2)C(=O)NC2(C(=O)N[C@@H](CCCCNC(=O)C[N+](C)(C)CCNC(=O)COCCOCCNC(=O)COCCOCCNC(=O)CC[C@H](NC(=O)CCCCCCCCCCCCCCCCC(=O)O)C(=O)O)C(=O)N[C@@H](CC(N)=O)C(=O)N[C@@H](Cc3cccnc3)C(=O)N(C)CC(N)=O)CCOCC2)NC1=O` [Example 124, MeCO-Pen*-N-T-7MeW-K(Ac)-Pen*-AEF-2Nal-THP-K(SP6 PEG2PEG2gE C18OH)-N-3Pya-Sar-CONH2] (Ac-[Pen]NT[Trp(7-Me)]K(Ac)[Pen][AEF][2Nal][Thp]K(X2)N[3Pal][Sar]-NH2; disulfide 1-6), 0.083 nM; to `CC(=O)NCCCC[C@@H]1NC(=O)[C@H](Cc2c[nH]c3c(C)cccc23)NC(=O)[C@H]([C@@H](C)O)NC(=O)[C@H](CC(N)=O)NC(=O)[C@@H](NC(C)=O)C(C)(C)SSC(C)(C)[C@@H](C(=O)N[C@@H](Cc2ccc(OCCN)cc2)C(=O)N[C@@H](Cc2ccc3ccccc3c2)C(=O)NC2(C(=O)N[C@@H](CCCCNC(=O)COCCOCCNC(=O)COCCOCCNC(=O)CC[C@H](NC(=O)[C@H]3CC[C@H](CNC(=O)CCCCCCCCCCCCCCCCCCC(=O)O)CC3)C(=O)O)C(=O)N[C@@H](CC(N)=O)C(=O)N[C@@H](Cc3cccnc3)C(=O)N(C)CC(N)=O)CCOCC2)NC1=O` [Example 128, MeCO-Pen*-N-T-7MeW-K(Ac)-Pen*-AEF-2Nal-THP-K(PEG2PEG2gETrxC20OH)-N-3Pya-Sar-CONH2] (Ac-[Pen]NT[Trp(7-Me)]K(Ac)[Pen][AEF][2Nal][Thp]K([AEEA-AEEA-γGlu-Trx-C20 diacid])N[3Pal][Sar]-NH2; disulfide 1-6), 0.1 nM.

Turning to `CC(=O)NCCCC[C@@H]1NC(=O)[C@H](Cc2c[nH]c3c(C)cccc23)NC(=O)[C@H]([C@@H](C)O)NC(=O)[C@H](CC(N)=O)NC(=O)[C@@H](NC(=O)[C@@H](CCCNC(=N)N)NC(C)=O)C(C)(C)SSC(C)(C)[C@@H](C(=O)N[C@@H](Cc2ccc(OCCN)cc2)C(=O)N[C@@H](Cc2ccc3ccccc3c2)C(=O)NC2(C(=O)N[C@@H](CCCCNC(C)=O)C(=O)N[C@@H](CC(N)=O)C(=O)N[C@@H](Cc3cccnc3)C(=O)N(C)CC(=O)NCCOCCOCC(=O)NCCOCCOCC(=O)NCC[C@H](NC(=O)CCCCCCCCCCCCCCCCC(=O)O)C(=O)O)CCOCC2)NC1=O` [Example 129, MeCO-r-Pen*-N-T-7MeW-K(Ac)-Pen*-AEF-2Nal-THP-K(Ac)-N-3Pya-Sar-PEG2PEG2gDabC18OH-COOH] (Ac-[dR][Pen]NT[Trp(7-Me)]K(Ac)[Pen][AEF][2Nal][Thp]K(Ac)N[3Pal][Sar][AEEA][AEEA]-X5; disulfide 2-7), on IL-23R, half-maximal inhibition (IC50) required 0.24 nM. This IC50 is about 2.4-fold higher than that of the molecule before.

On to `CC(=O)NCCCC[C@@H]1NC(=O)[C@H](Cc2c[nH]c3c(C)cccc23)NC(=O)[C@H]([C@@H](C)O)NC(=O)[C@H](CC(N)=O)NC(=O)[C@@H](NC(C)=O)C(C)(C)SSC(C)(C)[C@@H](C(=O)N[C@@H](Cc2ccc(OCCN)cc2)C(=O)N[C@@H](Cc2ccc3ccccc3c2)C(=O)NC2(C(=O)N[C@@H](CCCCNC(=O)COCCOCCNC(=O)COCCOCCNC(=O)CC[C@H](NC(=O)[C@H](CNC(=O)CCCCCCCCCOc3cccc(C(=O)O)c3)NC(=O)CCCCCCCCCOc3cccc(C(=O)O)c3)C(=O)O)C(=O)N[C@@H](CC(N)=O)C(=O)N[C@@H](Cc3cccnc3)C(=O)N(C)CC(N)=O)CCOCC2)NC1=O` [Example 134, MeCO-Pen*-N-T-7MeW-K(Ac)-Pen*-AEF-2Nal-THP-K(PEG2PEG2gEDAP(mXOH)2)-N-3Pya-Sar-CONH2], for which the half-maximal inhibitory concentration (IC50) on IL-23R worked out at 0.037 nM. The molecule “MeCO-r-Pen(3)-N15-T-7MeW-K(Ac)-Pen(3)-AEF-2Nal-THP-E-N15-3Pya-Sar-K(PEG2PEG2gEC18OH)-CONH2 [Compound 354]” registered a half-maximal inhibitory concentration (IC50) at IL-23R (IL23R reporter assay, HEK293 cells with IL-23R and STAT-inducible luciferase reporter, 10 ng/mL IL-23, 5 h, Table 5b 'IL-23 Binding Data') of 1280 nM.
